For 24 compounds, EC50 results are on record in patent US8703805B2 (Exelixis Patent Company LLC, priority 2005, dated 2014).

The structures appear in SMILES notation. A value given as a limit tells only on which side of the number the result lay.

The subject of this test is LXRα and/or LXRβ. The experiment in a line: LXR/LXRE co-transfection assay (luciferase reporter, CV-1 cells). The class given is cell-based, human. The following applies: IC50 or EC50 for LXR (LXRα and/or LXRβ, not distinguished), tested as described in Example 109, CV-1 cells. From the text:
To measure the ability of compounds to activate or inhibit the transcriptional activity of LXR in a cell based assay, the co-transfection assay was used. It has been shown that LXR functions as a heterodimer with RXR. For the co-transfection assay; expression plasmids for LXR and RXR are introduced via transient transfection into mammalian cells along with a luciferase reporter plasmid that contains one copy of a DNA sequence that is bound by LXR-RXR heterodimers (LXRE; Willy, P. ad. 1995). Treatment of transfected cells with an LXR agonist increases the transcriptional activity of LXR, which is measured by an increase in luciferase activity.
CV-1 African Green Monkey Kidney Cells Co-transfection expression plasmids, comprising full-length LXRα (pCMX-h LXRα, LXRβ (pCMX-hLXRβ), or RXRα (pCMX-RXR), reporter plasmid (LXREx1-Tk-Luciferase), and control (pCMX-Galactosidase expression vector) (Willey et al. Genes & Development 91033-1045 (1995)). Transfection reagent such as FuGENE6 (Roche). 1× Cell lysis buffer (1% Triton X 100 (IT Baker X200-07), 10% Glycerol (JT Baker M778-07), 5 mM Ditriotreitol (Quantum Bioprobe DTT03; add fresh before lysing), 1 mM EGTA (Ethylene Glycol-bis(B-Amino ethyl ether)-N,N,N′,N′-Tetracetic Acid) (Sigma E-4378), 25 mM Tricine (ICN 807420) pH 7.8) 1× Luciferase assay buffer (pH at 7.8) (0.73 mM ATP, 22.3 mM Tricine, 0.11 mM EDTA, 33.3 mM DTT) 1× Luciferrin/CoA (11 mM Luciferin, 3.05 mM Coenzyme A, 10 mM HEPES) Preparation of Screening Reagents
CV-1 cells were prepared 24 hours prior to the experiment by plating them into T-175 flasks or 500 cm^2 dishes in order to achieve 70-80% confluency on the day of the transfection. The number of cells to be transfected was determined by the number of plates to be screened. each 384 well plate requires 1.92×10^6 cells or 5000 cells per well. DNA Transfection Reagent was prepared by mixing the required plasmid DNAs with a cationic lipid transfection reagent FuGENE6 (Roche) by following the instructions provided with the reagents. Optimal DNA amounts were determined empirically per cell line and size of vessel to be transfected. 10-12 mL of media was added to the DNA Transfection Reagent and this mixture was added to the cells after aspirating media from the T175 cm^2 flask. Cells were then incubated at least 5 hours at 37° C. to prepare screening cells.
Luciferase assay reagent was prepared by combining before use (per 10 mL): […], 0.54 mL of 1× Luciferrin/CoA; 0.54 mL of 0.2 M Magnesium sulfate
Assay plates were prepared by dispensing 5 μL of compound per well of a 384 well plate to achieve final compound concentration of 10 μM and no more than 1% DMSO. Media was removed from the screening cells, the cells trypsinized, harvested cells by centrifugation, counted, and plated at a density of approximately 5000 cells per well in the 384 well assay plate prepared above in a volume of about 45 μL. Assay plates containing both compounds and screening cells (50 μL in total volume) were incubated for 20 hours at 37° C.
After incubation with compounds, media was removed from the cells and lysis buffer (30 μL/well) added. After 30 minutes at ambient temperature, luciferase assay buffer (30 μL/well) was added and the assay plates read on a luminometer (PE Biosystems Northstar reader with on-board injectors, or equivalent). Plates were read immediately after addition of luciferase assay buffer.
The LXR/LXRE co-transfection assay can be used to establish the EC50/IC50 values for potency and percent activity or inhibition for efficacy. Efficacy defines the activity of a compound relative to a high control ((N-(3-((4-fluorophenyl)-(naphthalene-2-sulfonyl)amino)propyl)-2,2-dimethylpropionamide)) or a low control (DMSO/vehicle). The dose response curves are generated from an 8 point curve with concentrations differing by ½ LOG units. each point represents the average of 4 wells of data from a 384 well plate. […]
In the case of `COC(=O)CNC(=O)c1ccc(-c2cc(C(F)(F)F)nn2-c2ccccc2Cl)cc1` [Example 1354, methyl N-({4-[1-(2-chlorophenyl)-3-(trifluoromethyl)-1H-pyrazol-5-yl]phenyl}carbonyl)glycinate], the EC50 was 1000 to 10000 nM.

For the compound `CC(C)(O)c1cccc(-c2ccc(-c3cc(C(F)(F)F)nn3-c3ccccc3Cl)s2)c1` [Example 1240, 2-(3-{5-[1-(2-chlorophenyl)-3-(trifluoromethyl)-1H-pyrazol-5-yl]-2-thienyl}phenyl)propan-2-ol], the EC50 was < 1000 nM.

Take `CC(C)(O)c1cc(-c2ccc(-c3cccc(S(C)(=O)=O)c3)s2)n(-c2cccc(Cl)c2F)n1` [Example 1328, 2-[1-(3-chloro-2-fluorophenyl)-5-{5-[3-(methylsulfonyl)phenyl]-2-thienyl}-1H-pyrazol-3-yl]propan-2-ol]: the EC50 was < 1000 nM.

For `COC(=O)c1cc(-c2ccc(-c3cccc(S(=O)(=O)C(C)C)c3)s2)n(-c2ncccc2C(F)(F)F)n1` [Example 1170, methyl 5-(5-{3-[(1-methylethyl)sulfonyl]phenyl}-2-thienyl)-1-[3-(trifluoromethyl)pyridin-2-yl]-1H-pyrazole-3-carboxylate], the EC50 is < 1000 nM.

Compound `CC(C)(N)c1cc(-c2ccc(-c3cccc(S(C)(=O)=O)c3)s2)n(-c2ccccc2Cl)n1` [Example 1151, 2-[1-(2-chlorophenyl)-5-{5-[3-(methylsulfonyl)phenyl]-2-thienyl}-1H-pyrazol-3-yl]propan-2-amine] returned an EC50 of 1000 to 10000 nM.

On to `COC(=O)CCNC(=O)c1ccc(-c2cc(C(F)(F)F)nn2-c2ccccc2Cl)cc1` [Example 1356, methyl N-({4-[1-(2-chlorophenyl)-3-(trifluoromethyl)-1H-pyrazol-5-yl]phenyl}carbonyl)-beta-alaninate], for which the EC50 fell in the range of 1000 to 10000 nM.

Consider `CC(C)(O)c1nn(-c2ccccc2Br)c(-c2ccc(-c3cccc(S(C)(=O)=O)c3)s2)c1Br` [Example 1360, 2-[4-bromo-1-(2-bromophenyl)-5-{5-[3-(methylsulfonyl)phenyl]-2-thienyl}-1H-pyrazol-3-yl]propan-2-ol], for which the EC50 was < 1000 nM.

In turn, `CS(=O)(=O)c1cccc(-c2ccc(-c3cc(C(=O)NCCc4ccccn4)nn3-c3ccccc3Cl)s2)c1` [Example 1232, 1-(2-chlorophenyl)-5-{5-[3-(methylsulfonyl)phenyl]-2-thienyl}-N-(2-pyridin-2-ylethyl)-1H-pyrazole-3-carboxamide] displayed an EC50 of 1000 to 10000 nM.

As for `CC(C)(O)c1cc(-c2ccc(-c3cccc4[nH]ccc34)cc2)n(-c2ccccc2Cl)n1` [Example 1286, 2-{1-(2-chlorophenyl)-5-[4-(1H-indol-4-yl)phenyl]-1H-pyrazol-3-yl}propan-2-ol], the EC50 was 1000 to 10000 nM.

On to `CCC(=O)c1cc(-c2ccc(-c3cccc(S(C)(=O)=O)c3)s2)n(-c2ccccc2Cl)n1` [Example 1173, 1-[1-(2-chlorophenyl)-5-{5-[3-(methylsulfonyl)phenyl]-2-thienyl}-1H-pyrazol-3-yl]propan-1-one], for which the half-maximal effective concentration (EC50) is < 1000 nM.

Consider `CC(C)(O)c1nn(-c2cccc(Cl)c2F)c(-c2ccc(-c3cccc(S(C)(=O)=O)c3)s2)c1Br` [Example 1357, 2-[4-bromo-1-(3-chloro-2-fluorophenyl)-5-{5-[3-(methylsulfonyl)phenyl]-2-thienyl}-1H-pyrazol-3-yl]propan-2-ol], for which the EC50 was < 1000 nM.

`CC(C)(C(=O)O)c1cccc(-c2ccc(-c3cc(C(F)(F)F)nn3Cc3ccc(F)cc3F)s2)c1` [Example 1205, 2-[3-(5-{1-[(2,4-difluorophenyl)methyl]-3-(trifluoromethyl)-1H-pyrazol-5-yl}-2-thienyl)phenyl]-2-methylpropanoic acid]: the EC50 was < 1000 nM.

On to `CCC(O)CS(=O)(=O)c1cccc(-c2ccc(-c3cc(C(F)(F)F)nn3-c3cc(Cl)ccc3Cl)s2)c1` (stereo not drawn) [Example 1146, 1-[(3-{5-[1-(2,5-dichlorophenyl)-3-(trifluoromethyl)-1H-pyrazol-5-yl]-2-thienyl}phenyl)sulfonyl]butan-2-ol], for which the EC50 was < 1000 nM.

`CC(C)(O)c1cc(-c2ccc(-c3cccc(S(C)(=O)=O)c3)s2)n(-c2cccc(C(F)(F)F)c2F)n1` [Example 1333, 2-(1-[2-fluoro-3-(trifluoromethyl)phenyl]-5-{5-[3-(methylsulfonyl)phenyl]-2-thienyl}-1H-pyrazol-3-yl)propan-2-ol] displayed an EC50 of 1000 to 10000 nM.

As for `CC(C)(O)c1ccc(-c2ccc(-c3cc(C(F)(F)F)nn3-c3cc(Cl)ccc3Cl)s2)cc1S(C)(=O)=O` [Example 1304, 2-[4-{5-[1-(2,5-dichlorophenyl)-3-(trifluoromethyl)-1H-pyrazol-5-yl]-2-thienyl}-2-(methylsulfonyl)phenyl]propan-2-ol], the EC50 is < 1000 nM.

`CS(=O)(=O)c1cccc(-c2ccc(-c3cc(C(F)(F)F)nn3-c3c(Cl)cccc3Cl)s2)c1` [Example 1227, 1-(2,6-dichlorophenyl)-5-{5-[3-(methylsulfonyl)phenyl]-2-thienyl}-3-(trifluoromethyl)-1H-pyrazole]: the EC50 is < 1000 nM.

As to `Cc1cc(-c2cccc(S(C)(=O)=O)c2)ccc1-n1nc(C(C)(C)O)cc1-c1c(Cl)cccc1Cl` [Example 122, 2-(5-(2,6-dichlorophenyl)-1-(3-methyl-3′-(methylsulfonyl)biphenyl-4-yl)-1H-pyrazol-3-yl)propan-2-ol], the EC50 is < 1000 nM.

On to `CC(C)(O)c1cc(-c2cccc(Cl)c2Cl)n(-c2ccc(-c3cccc(S(C)(=O)=O)c3)cc2Cl)n1` [Example 135, 2-(1-(3-chloro-3′-(methylsulfonyl)biphenyl-4-yl)-5-(2,3-dichlorophenyl)-1H-pyrazol-3-yl)propan-2-ol], for which the EC50 is < 1000 nM.

`CC(C)c1cccc(-c2ccc(-c3cc(C(C)(C)O)nn3-c3ccccc3Cl)s2)c1` [Example 1332, 2-[1-(2-chlorophenyl)-5-{5-[3-(1-methylethyl)phenyl]-2-thienyl}-1H-pyrazol-3-yl]propan-2-ol] had an EC50 of 1000 to 10000 nM.

As to `Cc1cc(-c2cccc(S(C)(=O)=O)c2)ccc1-n1nc(C(C)(C)O)c(Cl)c1-c1c(F)cccc1Cl` [Example 149, 2-(4-chloro-5-(2-chloro-6-fluorophenyl)-1-(3-methyl-3′-(methylsulfonyl)biphenyl-4-yl)-1H-pyrazol-3-yl)propan-2-ol], the EC50 was < 1000 nM.

As to `CC(C)(O)c1cc(-c2ccc(-c3cccc(S(C)(=O)=O)c3)s2)n(-c2ncccc2F)n1` [Example 1272, 2-[1-(3-fluoropyridin-2-yl)-5-{5-[3-(methylsulfonyl)phenyl]-2-thienyl}-1H-pyrazol-3-yl]propan-2-ol], the EC50 was 1000 to 10000 nM.

Turning to `CC(=O)c1cccc(-c2ccc(-c3cc(C(C)(C)O)nn3-c3ccccc3Cl)s2)c1` [Example 755, 1-(3-{5-[1-(2-chlorophenyl)-3-(1-hydroxy-1-methylethyl)-1H-pyrazol-5-yl]-2-thienyl}phenyl)ethanone], the EC50 lay within 1000 to 10000 nM.

`CCS(=O)(=O)c1cccc(-c2ccc(-c3cc(C(C)(C)O)nn3-c3ccccc3Cl)s2)c1` [Example 1316, 2-[1-(2-chlorophenyl)-5-{5-[3-(ethylsulfonyl)phenyl]-2-thienyl}-1H-pyrazol-3-yl]propan-2-ol] displayed an EC50 of 1000 to 10000 nM.

With `CC(C)(O)c1cc(-c2ccc(-c3cccc(S(C)(=O)=O)c3)s2)n(-c2cccc(F)c2F)n1` [Example 1326, 2-[1-(2,3-difluorophenyl)-5-{5-[3-(methylsulfonyl)phenyl]-2-thienyl}-1H-pyrazol-3-yl]propan-2-ol], the EC50 is < 1000 nM.
